Like-named read-outs stand apart in the source and are kept apart here.
What was measured:
[1] = system: HCV genotype 1a (H77 strain) replicon in HUH-7 cells; test: HCV replicon luciferase reporter assay, genotype 1a; type: cell-based; settings: Hepatitis C virus, Huh-7, 72 h, 3 days incubation, read-out: LE_1a (EC50, range)
Outline: (§1)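 Replicon inhibition for both genotypes was measured as Renilla luciferase signal (EnduRen, 7.5 μM final, 2 h) after 3-day, 37° C exposure of replicon-bearing HUH-7 cells in 4% FCS DMEM, 0.5% DMSO. The 1b construct carries S1179I; the 1a H77 construct carries P1496L and S2204I. Twenty-point, 3-fold dilutions were fitted four-parametrically for EC50, and CC50 was taken from multiplexed Cell Titer-Blue.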

[2] = system: HCV genotype 1b (Con1) replicon in HUH-7 cells; test: HCV replicon luciferase reporter assay, genotype 1b; type: cell-based; settings: Hepatitis C virus, Huh-7, 72 h, 3 days incubation, read-out: LE_1b (EC50, range)
Outline: as §1

[3] = HCV genotype 1a replicon luciferase
[4] = HCV genotype 1b replicon luciferase
[5] = HCV genotype 1a replicon luciferase assay, range class
[6] = HCV genotype 1b replicon luciferase assay, range class

Compound | EC50 [1, 3] [nM] | EC50 [2, 4] [nM] | other results
CC[C@@H]1C[C@H](C)CC/C=C\[C@@H]2C[C@@]2(C(=O)NS(=O)(=O)C2CC2)NC(=O)[C@@H]2C[C@@H](Oc3nccc4c5c(ccc34)N(C)CCO5)CN2C(=O)[C@H]1NC(=O)OC(C)(C)C(F)(F)F [Compound 5310, 1,1,1-trifluoro-2-methylpropan-2-yl((2R,6S,7R,9R,13aS,14aR,16aS,Z)-14a-((cyclopropylsulfonyl)carbamoyl)-7-ethyl-9-methyl-2-((4-methyl-3,4-dihydro-2H-[1,4]oxazino[2,3-f]isoquinolin-7-yl)oxy)-5,16-dioxo-1,2,3,5,6,7,8,9,10,11,13a,14,14a,15,16,16a-hexadecahydrocyclopropa[e]pyrrolo[1,2-a][1,4]diazacyclopentadecin-6-yl)carbamate] | < 5.46 | < 5.46 | –
COc1ccc2c(O[C@@H]3C[C@H]4C(=O)N[C@]5(C(=O)NS(=O)(=O)C6CC6)C[C@H]5/C=C\CC[C@@H](C)C[C@@H](C)[C@H](NC(=O)O[C@@H]5C[C@@H]6C[C@@H]6C5)C(=O)N4C3)nc(-c3ccc(OC(C)C)c(F)c3)cc2c1 [Compound 3070, (1R,3r,5S)-bicyclo[3.1.0]hexan-3-yl((2R,6S,7R,9R,13aS,14aR,16aS,Z)-14a-((cyclopropylsulfonyl)carbamoyl)-2-((3-(3-fluoro-4-isopropoxyphenyl)-6-methoxyisoquinolin-1-yl)oxy)-7,9-dimethyl-5,16-dioxo-1,2,3,5,6,7,8,9,10,11,13a,14,14a,15,16,16a-hexadecahydrocyclopropa[e]pyrrolo[1,2-a][1,4]diazacyclopentadecin-6-yl)carbamate] | – | – | EC50 [1, 5]: < 5.46 nM; EC50 [2, 6]: < 5.46 nM
CC[C@@H]1C[C@H](C)CC/C=C\[C@@H]2C[C@@]2(C(=O)NS(=O)(=O)C2(C)CC2)NC(=O)[C@@H]2C[C@@H](Oc3nccc4cc(OC)ccc34)CN2C(=O)[C@H]1NC(=O)O[C@H](C)C(F)(F)F [Compound 4177, (R)-1,1,1-trifluoropropan-2-yl (2R,6S,7R,9R,13aS,14aR,16aS,Z)-7-ethyl-2-(6-methoxyisoquinolin-1-yloxy)-9-methyl-14a-(1-methylcyclopropylsulfonylcarbamoyl)-5,16-dioxo-1,2,3,5,6,7,8,9,10,11,13a,14,14a,15,16,16a-hexadecahydrocyclopropa[e]pyrrolo[1,2-a][1,4]diazacyclopentadecin-6-ylcarbamate] | < 5.46 | < 5.46 | –
COc1nnc(O[C@@H]2C[C@H]3C(=O)N[C@]4(C(=O)NS(=O)(=O)C5(C)CC5)C[C@H]4/C=C\CC[C@@H](C)C[C@@H](C)[C@H](NC(=O)OC(C)(C)C)C(=O)N3C2)c2ccccc12 [Compound 5016, tert-butyl ((2R,6S,7R,9R,13aS,14aR,16aS,Z)-2-((4-methoxyphthalazin-1-yl)oxy)-7,9-dimethyl-14a-(((1-methylcyclopropyl)sulfonyl)carbamoyl)-5,16-dioxo-1,2,3,5,6,7,8,9,10,11,13a,14,14a,15,16,16a-hexadecahydrocyclopropa[e]pyrrolo[1,2-a][1,4]diazacyclopentadecin-6-yl)carbamate] | < 5.46 | < 5.46 | –
CC[C@@H]1C[C@H](C)CC/C=C\[C@@H]2C[C@@]2(C(=O)NS(=O)(=O)C2(CF)CC2)NC(=O)[C@@H]2C[C@@H](Oc3nccc4c5c(ccc34)OCCO5)CN2C(=O)[C@H]1NC(=O)OC(C)(C)C [Compound 5425, tert-butyl ((2R,6S,7R,9R,13aS,14aR,16aS,Z)-2-((2,3-dihydro-[1,4]dioxino[2,3-f]isoquinolin-7-yl)oxy)-7-ethyl-14a-(((1-(fluoromethyl)cyclopropyl)sulfonyl)carbamoyl)-9-methyl-5,16-dioxo-1,2,3,5,6,7,8,9,10,11,13a,14,14a,15,16,16a-hexadecahydrocyclopropa[e]pyrrolo[1,2-a][1,4]diazacyclopentadecin-6-yl)carbamate] | 1.01 to 5 | 1.01 to 5 | –
CC(C)Oc1ccc2c(O[C@@H]3C[C@H]4C(=O)N[C@]5(C(=O)NS(=O)(=O)C6(C)CC6)C[C@H]5/C=C\CC[C@@H](C)C[C@@H](C)[C@H](NC(=O)OC(C)(C)C(F)(F)F)C(=O)N4C3)nccc2c1 [Compound 5159, 1,1,1-trifluoro-2-methylpropan-2-yl((2R,6S,7R,9R,13aS,14aR,16aS,Z)-2-((6-isopropoxyisoquinolin-1-yl)oxy)-7,9-dimethyl-14a-(((1-methylcyclopropyl)sulfonyl)carbamoyl)-5,16-dioxo-1,2,3,5,6,7,8,9,10,11,13a,14,14a,15,16,16a-hexadecahydrocyclopropa[e]pyrrolo[1,2-a][1,4]diazacyclopentadecin-6-yl)carbamate] | < 5.46 | < 5.46 | –
COc1cc2c(OC)cnc(O[C@@H]3C[C@H]4C(=O)N[C@]5(C(=O)NS(=O)(=O)C6(C)CC6)C[C@H]5/C=C\CC[C@@H](C)C[C@@H](C)[C@H](NC(=O)OC(C)(C)C(F)(F)F)C(=O)N4C3)c2cc1F [Compound 4164] | – | – | EC50 ([1]; GETYPE1A, HCV genotype 1a replicon luciferase): < 5.46 nM; EC50 ([2]; GETYPE1B, HCV genotype 1b replicon luciferase): < 5.46 nM
C[C@@H]1CC/C=C\[C@@H]2C[C@@]2(C(=O)NS(=O)(=O)C2(C)CC2)NC(=O)[C@@H]2C[C@@H](Oc3nccc4c5c(ccc34)N(C)CCO5)CN2C(=O)[C@@H](NC(=O)c2ccc(N(C)C)cc2)[C@H](C)C1 [Compound 5304, (2R,6S,7R,9R,13aS,14aR,16aS,Z)-6-(4-(dimethylamino)benzamido)-7,9-dimethyl-2-((4-methyl-3,4-dihydro-2H-[1,4]oxazino[2,3-f]isoquinolin-7-yl)oxy)-N-((1-methylcyclopropyl)sulfonyl)-5,16-dioxo-1,2,3,5,6,7,8,9,10,11,13a,14,14a,15,16,16a-hexadecahydrocyclopropa[e]pyrrolo[1,2-a][1,4]diazacyclopentadecine-14a-carboxamide] | < 5.46 | < 5.46 | –
CC[C@@H]1C[C@H](C)CC/C=C\[C@@H]2C[C@@]2(C(=O)NS(=O)(=O)C2(C)CC2)NC(=O)[C@@H]2C[C@@H](Oc3ncc(OC)c4ccccc34)CN2C(=O)[C@H]1NC(=O)OC(C)(C)C(C)(F)F [Compound 5437, 3,3-difluoro-2-methylbutan-2-yl((2R,6S,7R,9R,13aS,14aR,16aS,Z)-7-ethyl-2-((4-methoxyisoquinolin-1-yl)oxy)-9-methyl-14a-(((1-methylcyclopropyl)sulfonyl)carbamoyl)-5,16-dioxo-1,2,3,5,6,7,8,9,10,11,13a,14,14a,15,16,16a-hexadecahydrocyclopropa[e]pyrrolo[1,2-a][1,4]diazacyclopentadecin-6-yl)carbamate] | 1.01 to 5 | 0.1 to 0.5 | –
COCCOc1cnc(O[C@@H]2C[C@H]3C(=O)N[C@]4(C(=O)NS(=O)(=O)C5(C)CC5)C[C@H]4/C=C\CC[C@@H](C)C[C@@H](C)[C@H](NC(=O)OC4COC4)C(=O)N3C2)c2ccc(OC)cc12 [Compound 1157, oxetan-3-yl ((2R,6S,7R,9R,13aS,14aR,16aS,Z)-2-((6-methoxy-4-(2-methoxyethoxyl)isoquinolin-1-yl)oxy)-7,9-dimethyl-14a-(((1-methylcyclopropyl)sulfonyl)carbamoyl)-5,16-dioxo-1,2,3,5,6,7,8,9,10,11,13a,14,14a,15,16,16a-hexadecahydrocyclopropa[e]pyrrolo[1,2-a][1,4]diazacyclopentadecin-6-yl)carbamate] | – | – | EC50 [1, 5]: 4.82 to 103 nM; EC50 [2, 6]: 4.82 to 103 nM
